Values of other authors as cited in paper PMC7070898 (Clinical and Translational Science, 2019).

Assays:
[1] = patients receiving acalabrutinib ref 12; cited from earlier work
[2] = target: BTK (Homo sapiens, UniProt Q06187); details: single dose, cited from earlier work
Chain of BTK (Q06187 whole entry): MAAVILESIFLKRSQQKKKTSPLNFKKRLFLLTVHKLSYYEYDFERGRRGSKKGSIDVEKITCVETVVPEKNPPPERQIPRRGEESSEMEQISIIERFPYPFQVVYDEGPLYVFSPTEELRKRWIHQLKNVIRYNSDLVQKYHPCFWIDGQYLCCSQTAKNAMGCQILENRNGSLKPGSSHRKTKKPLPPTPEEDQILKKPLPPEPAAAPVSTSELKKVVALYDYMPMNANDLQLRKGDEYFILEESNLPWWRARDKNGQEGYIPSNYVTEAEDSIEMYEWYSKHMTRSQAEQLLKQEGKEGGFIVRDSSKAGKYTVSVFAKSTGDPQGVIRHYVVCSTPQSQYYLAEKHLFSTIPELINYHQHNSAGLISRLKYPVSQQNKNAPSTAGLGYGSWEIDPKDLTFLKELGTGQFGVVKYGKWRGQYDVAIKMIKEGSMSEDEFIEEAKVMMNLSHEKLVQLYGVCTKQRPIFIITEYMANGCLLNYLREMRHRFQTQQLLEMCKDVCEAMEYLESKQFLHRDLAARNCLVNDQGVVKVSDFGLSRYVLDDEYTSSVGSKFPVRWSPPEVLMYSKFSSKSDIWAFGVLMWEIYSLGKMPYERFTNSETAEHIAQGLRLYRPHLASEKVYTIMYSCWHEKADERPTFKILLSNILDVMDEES

SMILES | atrial fibrillation/flutter, patients [1] | BTK occupancy ([2]; five of six healthy subjects, ≤ 4 hours after administration ref 21) | duration of complete or near‐complete BTK occupancy ([2]; healthy subjects ref 21)
CC#CC(=O)N1CCC[C@H]1c1nc(-c2ccc(C(=O)Nc3ccccn3)cc2)c2c(N)nccn12 [acalabrutinib] | 3% | – | –
C=CC(=O)Nc1cccc(Nc2nc(Nc3ccc(OCCOC)cc3)ncc2F)c1 [CC‐292] | – | > 98% | 8 to 24 h
